Consider 19 compounds from paper PMC11995402 (ACS infectious diseases, 2025).

One series has as its system CK2α/PI3Kγ. As to conditions: cited from earlier work.
For another series, the system named is T. muris. Briefly: adult whipworm whole-worm motility inhibition assay. As to conditions: for worm motility inhibition (in words) / motility inhibition: adult T. muris; for worm motility inhibition (in words): 30 μM (Figure 1); for worm motility inhibition, SAR statement (in words): T. muris, 50 μM, 48 h (Figures 3-5); for motility inhibition: 30 μM. The series is classed as cell-based, Trichuris muris.

A further series relates to A. ceylanicum. Briefly: adult hookworm whole-worm motility inhibition assay. The series is classed as cell-based, Ancylostoma ceylanicum. As to conditions: for worm motility inhibition, SAR statement (in words): A. ceylanicum, 30 μM, 48 h (Figures 3-5); for IC50: motility.
The subject of a further series is HepG2 cells. Briefly: HepG2 MTT viability assay. As to conditions: for CC50: read-out: HEPG2 cells CC50 μM (95% CI) 24 h, MTT viability, 24 h.
The nature of another series: in vitro. As to conditions: dog.
The subject of the next series is MDR1 (P-gp). In words: in vitro. The note with it: dog, MDCK-MDR1.
Where [1] appears, read: read-out: A. ceylanicum IC50 μM (95% CI) 24 h, 24 h.
Where [2] appears, read: read-out: A. ceylanicum IC50 μM (95% CI) 48 h, 48 h.
[3] abbreviates: read-out: T. muris IC50 μM (95% CI) 24 h, motility, 24 h.
[4] abbreviates: read-out: T. muris IC50 μM (95% CI) 48 h, motility, 48 h.

Broadly, the CC50 is the concentration giving 50% cytotoxicity. One may read the Papp A→B as how fast a substance crosses the layer from the apical side. Read a low Papp A→B as slow passage. The Papp B→A is how fast a substance crosses the layer from the basolateral side. The efflux ratio is a quotient of directional permeabilities that is used to spot active efflux.

“Also recorded” adds a separate entry of the source. Read-outs that look alike come from different tables or passages of the source.

Take `O=C1NC(=O)/C(=C/c2ccc(-c3ccc(F)cc3O)o2)S1` [AS-252424]: the “selectivity for PI3Kγ over PI3Kα” value in the series on CK2α/PI3Kγ is given as 30 fold. In the series on CK2α/PI3Kγ (read-out: IC50 (dual inhibitor of CK2α/PI3Kγ)), the IC50 is 0.03 µM. For the same compound, the “worm motility inhibition (in words)” value in the series with T. muris is reported as “excellent worm motility inhibition”.

For `N[C@@H]1CCCN(c2c(/C=C3\SC(=O)NC3=O)cccc2-c2ccccc2)C1` [AZD1208], in the series with T. muris, the “worm motility inhibition (in words)” value is “inactive”.

`O=C(O)c1ccc2c(c1)nc(Nc1cccc(Cl)c1)c1ccncc12` [CX-4945]: the “worm motility inhibition (in words)” value with T. muris is “did not show measurable inhibition of worm motility”.

For the compound `CN1CCCN(C(=O)c2cccc(-c3ccc(C=C4C(=O)Nc5ccc(N)cc54)o3)c2)CC1` [Compound 7], the “worm motility inhibition, SAR statement (in words)” value was “not against A. ceylanicum; also recorded: inactive against both species” with A. ceylanicum and “complete loss of activity; also recorded: inactive against both species” with T. muris.

`CN1CCCN(C(=O)c2cccc(-c3ccc(C=C4C(=O)Nc5c(Cl)cccc54)o3)c2)CC1` [Compound 8]: the “worm motility inhibition, SAR statement (in words)” value with A. ceylanicum is “hookworm selective; also recorded: neither an increase nor decrease to activity”; with T. muris, “neither an increase nor decrease to activity”. Besides, the IC50 in the series on A. ceylanicum (setting [1]) is 40 µM; in the series with A. ceylanicum (setting [2]), 21 µM; in the series with T. muris (setting [3]), 42 µM; in the series on T. muris (setting [4]) it was above 90 µM. In addition, in the series with HepG2 cells, the CC50 came out at 15.5 µM. In the series with HepG2 cells (relative to CX-6258), the “fold increase in cytotoxicity (measured by CC50)” value is 2.4 fold.

Take `Cc1ccc2c(c1)C(=Cc1ccc(-c3cccc(C(=O)N4CCCN(C)CC4)c3)o1)C(=O)N2` [Compound 10]: the “worm motility inhibition, SAR statement (in words)” value with A. ceylanicum and with T. muris was “inactivated the inhibition of both species” in each case.

`CN1CCCN(C(=O)c2cccc(-c3ccc(C=C4C(=O)Nc5ccccc54)o3)c2)CC1` [Compound 11]: the “worm motility inhibition, SAR statement (in words)” value in the series with A. ceylanicum and with T. muris was “neither an increase nor decrease to activity” throughout. Also, the IC50 in the series with A. ceylanicum (setting [1]) was 25.2 µM; in the series with A. ceylanicum (setting [2]), 8.8 µM; with T. muris (setting [3]), above 90 µM; in the series with T. muris (setting [4]), above 90 µM. Besides, in the series on HepG2 cells, the CC50 is 22.2 µM.

As for `C[C@H](NC(=O)c1c(N)nn2cccnc12)c1cc2cccc(C#Cc3cnn(C)c3)c2c(=O)n1-c1ccccc1` [IPI-549], in the series on T. muris, the “worm motility inhibition (in words)” value is reported as “did not show measurable inhibition of worm motility”.

Turning to `CN1CCC(CNc2ccc3ncc(-c4cccc(OC(F)(F)F)c4)n3n2)CC1` [SGI-1776], the “worm motility inhibition (in words)” value with T. muris was “excellent inhibition”.

In the series with T. muris (@48 h (Figure 1B)), `O=C1NC(=O)/C(=C/c2cccc(C(F)(F)F)c2)S1` [SMI-4a] displayed a motility inhibition of 71%.

In the series with T. muris (@48 h (Figure 1B)), `CCCOc1ccc(/C=C2\SC(=O)NC2=O)cc1` [SMI-16a] yielded a motility inhibition of 57%.

`N#Cc1c(-c2ccccc2)cc(-c2cc(Br)ccc2O)[nH]c1=O` [TCS-PIM1]: the “worm motility inhibition (in words)” value in the series on T. muris is recorded as “excellent inhibition”. In addition, the motility inhibition in the series with T. muris (relative to DMSO controls) stood at 100%.

On to `Cc1ccc(-c2csc3ncnc(SCCC(=O)O)c23)cc1` [TTP22], for which the “worm motility inhibition (in words)” value in the series on T. muris is reported as “did not show measurable inhibition of worm motility”.

Regarding `CCCSc1ccc2nc(NC(=O)OC)[nH]c2c1` [albendazole], the IC50 with T. muris (Trichuris muris, 24 h, read-out: T. muris IC50 μM (95% CI) 24 h) was above 300 µM; in the series with T. muris (Trichuris muris, 48 h, read-out: T. muris IC50 μM (95% CI) 48 h), above 300 µM.

Regarding `C[C@H]1O[C@@H](O[C@H]2[C@@H](O)C[C@H](O[C@H]3[C@@H](O)C[C@H](O[C@H]4CC[C@@]5(C)[C@H](CC[C@@H]6[C@@H]5C[C@@H](O)[C@]5(C)[C@@H](C7=CC(=O)OC7)CC[C@]65O)C4)O[C@@H]3C)O[C@@H]2C)C[C@H](O)[C@@H]1O` [digoxin], in the series on MDR1-MDCK II cells (MDR1-MDCK II cells), the “Rank Papp” value was “low”. In “in vitro” (MDCK-MDR1, mean solution recovery % A to B, MDR1-MDCK II cells), this compound gave a recovery of 77.5%. In the series “in vitro” (MDCK-MDR1, mean solution recovery % B to A, MDR1-MDCK II cells), this compound had a recovery of 92.7%. For the same compound, in the series on MDR1 (P-gp), the Papp A→B was 0.151 ×10⁻⁶ cm/s, the Papp B→A is 3.43 ×10⁻⁶ cm/s and the efflux ratio is 22.8.

For `CC(C)C[C@H]1C(=O)O[C@H](Cc2ccc(N3CCOCC3)cc2)C(=O)N(C)[C@@H](CC(C)C)C(=O)O[C@H](C)C(=O)N(C)[C@@H](CC(C)C)C(=O)O[C@H](Cc2ccc(N3CCOCC3)cc2)C(=O)N(C)[C@@H](CC(C)C)C(=O)O[C@H](C)C(=O)N1C` [emodepside], the IC50 with A. ceylanicum (setting [1]) is 0.0033 µM; with A. ceylanicum (setting [2]) it was 0.0011 µM; with T. muris (setting [3]) it was 0.0143 µM; in the series with T. muris (setting [4]), 0.0345 µM.

Turning to `COCCc1ccc(OCC(O)CNC(C)C)cc1` (stereo not drawn) [metoprolol], in the series with MDR1-MDCK II cells (MDCK-MDR1), the “Rank Papp” value is reported as “high”. The recovery in the series “in vitro” (MDCK-MDR1) came out at 97.4%. In addition, the apical-to-basolateral permeability (Papp A→B) in the series with MDR1 (P-gp) was 25.6 ×10⁻⁶ cm/s.

Consider `CC(C)(C)NCC(O)COc1cccc2c1CC(O)C(O)C2` (stereo not drawn) [nadolol], for which the “Rank Papp” value with MDR1-MDCK II cells (MDCK-MDR1) is reported as “low”. The compound further gave a recovery in the series “in vitro” (MDCK-MDR1) of 83.1%. In addition, the apparent permeability from apical to basolateral (Papp A→B) with MDR1 (P-gp) came out at 0.05 ×10⁻⁶ cm/s.

As for ivermectin, the figures for the IC50 in the series on T. muris (setting [3]) and with T. muris (setting [4]) were above 300 µM and 89.6 µM, respectively.
